Data published in ChEMBL document CHEMBL4823263, “Discovery of 2-(3-(3-Carbamoylpiperidin-1-yl)phenoxy)acetic Acid Derivatives as Novel Small-Molecule Inhibitors of the β-Catenin/B-Cell Lymphoma 9 Protein-Protein Interaction” (J Med Chem, 2021).

Assays:
SW480 [1] = experiment: Inhibition of Wnt/beta-catenin transactivation signalling in human SW480 cells harboring mutant tcf4 binding sites assessed as relative activity at 6.25 uM incubated for 24 hrs by FOPFlash luciferase assay relative to control; type: cell-based; parameters: scale not given: the % may be the effect or the level left
SW480 [2] = experiment: Inhibition of Wnt signalling in human SW480 cells assessed as reduction in cyclinD1 expression incubated for 24 hrs by Western blot analysis; type: cell-based
[3] = Selectivity ratio of IC50 for human SW480 cells harboring beta-catenin pcDNA3.1 vector to IC50 for human SW480 cells harboring empty pcDNA3.1 vector
[4] = molecular target: Protein Wnt-3a (Homo sapiens) (UniProt P56704); experiment: Inhibition of Wnt3a in human SW480 cells assessed as LEF1 level at 30 uM incubated for […] by quantitative real-time PCR analysis relative to control; type: cell-based; parameters: scale not given: the % may be the effect or the level left
Chain of Protein Wnt-3a (Homo sapiens) (P56704 whole entry, the tested form may be a part): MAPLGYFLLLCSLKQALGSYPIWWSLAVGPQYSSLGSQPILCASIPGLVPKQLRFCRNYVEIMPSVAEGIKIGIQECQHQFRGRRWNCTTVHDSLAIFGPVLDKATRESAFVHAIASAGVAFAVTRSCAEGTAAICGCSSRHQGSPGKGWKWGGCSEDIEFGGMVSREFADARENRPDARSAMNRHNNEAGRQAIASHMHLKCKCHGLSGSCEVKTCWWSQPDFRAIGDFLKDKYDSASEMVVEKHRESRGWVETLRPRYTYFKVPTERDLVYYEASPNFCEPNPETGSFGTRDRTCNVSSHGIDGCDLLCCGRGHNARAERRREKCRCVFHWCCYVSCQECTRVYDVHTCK

[5] = Downregulation of HPRT in human MDA-MB-231 cells assessed as HPRT level at 30 uM incubated for […] by quantitative real-time PCR analysis relative to control; type: ADME, cell-based; conditions: mda-mb-231, 30 µM
[6] = molecular target: T1, beta-catenin-B-cell lymphoma 9 protein complex (Homo sapiens, UniProt P35222); experiment: Inhibition of full length C-terminal 6-His-tagged beta-catenin (1 to 781 residues) (unknown origin) expressed in Escherichia coli BL21 (DE3)-N-terminal biotinylated human BCL9 (350 to 375 residues) protein-protein interaction incubated for 1 hr by Alphascreen assay
T1 sequence (P35222 whole entry): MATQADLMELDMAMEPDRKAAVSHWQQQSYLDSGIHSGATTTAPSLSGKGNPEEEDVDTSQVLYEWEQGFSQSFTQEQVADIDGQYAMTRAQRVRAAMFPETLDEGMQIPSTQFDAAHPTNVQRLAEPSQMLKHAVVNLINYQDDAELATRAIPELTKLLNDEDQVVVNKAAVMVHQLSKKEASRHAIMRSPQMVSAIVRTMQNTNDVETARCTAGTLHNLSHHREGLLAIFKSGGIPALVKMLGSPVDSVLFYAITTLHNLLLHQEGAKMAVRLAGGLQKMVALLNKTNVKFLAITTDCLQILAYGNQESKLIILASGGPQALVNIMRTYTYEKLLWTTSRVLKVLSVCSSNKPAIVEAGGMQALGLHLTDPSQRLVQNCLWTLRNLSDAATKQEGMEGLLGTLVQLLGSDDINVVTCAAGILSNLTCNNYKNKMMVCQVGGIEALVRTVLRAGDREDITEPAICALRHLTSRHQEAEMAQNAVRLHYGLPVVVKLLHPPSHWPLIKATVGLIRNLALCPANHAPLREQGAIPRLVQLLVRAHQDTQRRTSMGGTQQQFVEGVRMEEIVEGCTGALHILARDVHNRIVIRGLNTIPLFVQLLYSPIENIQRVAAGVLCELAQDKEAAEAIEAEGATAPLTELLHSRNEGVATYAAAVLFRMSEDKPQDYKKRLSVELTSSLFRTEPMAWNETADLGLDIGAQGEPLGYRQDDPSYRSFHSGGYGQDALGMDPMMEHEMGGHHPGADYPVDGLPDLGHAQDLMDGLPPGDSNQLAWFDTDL
T1 sequence (O00512 whole entry): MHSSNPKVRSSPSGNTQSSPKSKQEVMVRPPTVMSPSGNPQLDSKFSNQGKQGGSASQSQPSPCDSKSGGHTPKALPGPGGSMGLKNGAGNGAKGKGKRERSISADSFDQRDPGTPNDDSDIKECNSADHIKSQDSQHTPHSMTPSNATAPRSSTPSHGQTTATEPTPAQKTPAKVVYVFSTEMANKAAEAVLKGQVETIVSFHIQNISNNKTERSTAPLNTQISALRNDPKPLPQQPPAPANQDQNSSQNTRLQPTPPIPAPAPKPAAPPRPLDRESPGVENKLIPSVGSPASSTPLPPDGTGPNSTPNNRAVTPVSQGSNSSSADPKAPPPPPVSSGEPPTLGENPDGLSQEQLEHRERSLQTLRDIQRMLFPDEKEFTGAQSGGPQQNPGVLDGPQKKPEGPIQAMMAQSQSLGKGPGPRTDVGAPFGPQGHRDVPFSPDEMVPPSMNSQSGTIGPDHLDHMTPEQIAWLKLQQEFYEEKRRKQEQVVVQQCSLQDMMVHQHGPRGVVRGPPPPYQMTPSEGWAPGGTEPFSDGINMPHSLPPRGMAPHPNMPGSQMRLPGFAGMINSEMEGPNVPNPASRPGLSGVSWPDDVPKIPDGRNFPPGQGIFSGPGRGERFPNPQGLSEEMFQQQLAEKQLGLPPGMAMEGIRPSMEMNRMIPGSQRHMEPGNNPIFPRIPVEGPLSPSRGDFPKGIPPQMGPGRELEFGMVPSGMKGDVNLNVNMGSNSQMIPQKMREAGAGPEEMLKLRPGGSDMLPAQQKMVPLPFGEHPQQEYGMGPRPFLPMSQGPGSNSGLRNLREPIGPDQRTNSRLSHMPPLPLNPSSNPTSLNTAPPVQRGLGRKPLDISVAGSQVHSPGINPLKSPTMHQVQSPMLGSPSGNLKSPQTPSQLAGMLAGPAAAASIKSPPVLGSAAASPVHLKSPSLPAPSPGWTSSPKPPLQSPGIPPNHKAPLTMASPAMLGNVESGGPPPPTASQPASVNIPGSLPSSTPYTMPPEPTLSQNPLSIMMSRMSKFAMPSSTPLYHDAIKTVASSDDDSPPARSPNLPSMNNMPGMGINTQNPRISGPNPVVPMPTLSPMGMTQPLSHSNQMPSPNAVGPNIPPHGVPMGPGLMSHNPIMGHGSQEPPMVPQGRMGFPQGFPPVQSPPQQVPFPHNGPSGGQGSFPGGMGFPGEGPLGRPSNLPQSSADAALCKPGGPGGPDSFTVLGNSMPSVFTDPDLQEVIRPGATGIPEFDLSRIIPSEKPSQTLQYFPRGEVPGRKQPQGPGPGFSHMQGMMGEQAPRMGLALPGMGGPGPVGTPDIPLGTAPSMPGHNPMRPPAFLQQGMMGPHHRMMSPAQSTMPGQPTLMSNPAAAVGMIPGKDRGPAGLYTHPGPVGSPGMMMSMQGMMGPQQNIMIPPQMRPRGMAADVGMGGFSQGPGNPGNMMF

[7] = molecular target: Protein Wnt-3a (Mus musculus) (UniProt P27467); experiment: Inhibition of mouse wnt3a expressed in human MDA-MB-231 cells assessed as Axin2 level at 3.3 uM incubated for […] by quantitative real-time PCR analysis relative to control; type: cell-based; parameters: scale not given: the % may be the effect or the level left
Chain of Protein Wnt-3a (Mus musculus) (P27467 whole entry): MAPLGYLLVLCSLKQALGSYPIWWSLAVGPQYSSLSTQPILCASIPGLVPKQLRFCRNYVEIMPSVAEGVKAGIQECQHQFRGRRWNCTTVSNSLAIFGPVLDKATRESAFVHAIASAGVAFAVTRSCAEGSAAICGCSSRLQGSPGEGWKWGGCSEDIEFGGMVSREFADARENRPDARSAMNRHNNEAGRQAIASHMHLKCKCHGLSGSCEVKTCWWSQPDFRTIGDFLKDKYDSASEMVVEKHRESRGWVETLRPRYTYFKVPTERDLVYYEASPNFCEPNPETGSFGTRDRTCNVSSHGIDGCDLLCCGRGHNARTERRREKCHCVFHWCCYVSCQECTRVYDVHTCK

[8] = molecular target: Protein Wnt-3a (Homo sapiens) (UniProt P56704); experiment: Inhibition of Wnt3a in human SW480 cells assessed as LEF1 level at 3.3 uM incubated for […] by quantitative real-time PCR analysis relative to control; type: cell-based; parameters: scale not given: the % may be the effect or the level left
[9] = molecular target: beta-catenin-B-cell lymphoma 9 protein complex (Homo sapiens) (UniProt P35222+O00512); experiment: Disruption of beta-catenin/N-terminal biotinylated human BCL9 HD2 (350 to 375 residues) protein-protein interaction in human SW480 cells incubated for 1 hr followed by N-terminal biotinylated human BCL9 HD2 addition and measured after 2 hrs by pull-down assay; type: cell-based; conditions: time 3.0 hrs
HCT-116 = experiment: Antiproliferative activity against human HCT116 cells incubated for 72 hrs by MTS assay; type: functional, cell-based; conditions: HCT-116, 72 h

For `CC(C)(Oc1cccc(N2CCC[C@H](C(=O)N(Cc3ccc(-c4cccs4)cc3)C3CC3)C2)c1)C(=O)NS(=O)(=O)c1ccc(C#N)cc1`, which Activity (SW480 [1]) is on record?
The Activity was 97%.

What about the Activity (SW480 [2]) of the same molecule?
Its Activity is “Dose-Dependent Effect”.

And the “Ratio IC50” value [3]?
Its value is 4.

What about the Activity [4] of the same molecule?
The Activity was 76%.

And the Activity [5]?
The Activity was 99%.

What about the IC50 [6] of the same molecule?
The IC50 was 4.4 µM.

What about the Activity [7] of the same molecule?
The Activity was 69%.

What about the Activity [8] of the same molecule?
Its Activity is 80%.

And the Activity [9]?
Its Activity is “Dose-Dependent Effect”.

What about the IC50 (HCT-116) of the same molecule?
Its IC50 is 29.6 µM.
